Experimental data: patent US20090312384A1, “Benzimidazole As Cooling Compounds” (priority 2006, published 2009)

Columns and labels:
[1] = system: panelists; test: Panel tasting of aqueous solutions for cooling intensity versus menthol at 2 ppm; assay type: in vivo; conditions: aqueous solution; concentration with cooling intensity similar or slightly higher than a solution of menthol at 2 ppm
Text: Experiments on cooling properties/intensities.
A group of panelists was asked to taste various aqueous solutions of compounds of formula (I) and to indicate which solutions had cooling intensities similar or slightly higher than that of a solution of menthol at 2 ppm.

[2] = system: panelist; test: Application in toothpaste: panelist's teeth brushed with toothgel containing the cooling compound; assay type: in vivo; conditions: 0.20 g of 5% (w/w) ethanol solution in opaque toothgel with peppermint oil and saccharin, after brushing and rinsing
Experimental: [table] The chemicals were mixed in the toothgel, a piece of toothgel was put on a toothbrush and a panelist's teeth were brushed. The mouth was rinsed with water and the water was spit out. […] The cooling perception lasted for 90 minutes.

SMILES	Concentration [1]	Duration of cooling perception [2]	Cooling sensation felt by the panelist ([2]; all areas of the mouth)	melting point
CC1CCC(C(C)C)C(O)C1 (stereo not drawn) [Example 1-Menthol, 1-Menthol, reference compound]	2 ppm solution	–	–	–
COc1ccc(C(=O)OC(=Cc2nc3ccc(C)cc3n2C(C)C)c2ccc(OC)cc2)cc1 [Example 5, 2-(1-isopropyl-6-methyl-1H-benzo[d]imidazol-2-yl)-1-(4-methoxyphenyl)vinyl 4-methoxybenzoate]	0.5 ppm	90 min	intense cooling sensation	125 to 130 °C
COc1ccc(C(=O)OC(=Cc2nc3cc(C)ccc3n2C(C)C)c2ccc(Cl)cc2)cc1 [Example 2, 1-(4-chlorophenyl)-2-(1-isopropyl-5-methyl-1H-benzo[d]imidazol-2-yl)vinyl 4-methoxybenzoate]	–	–	–	155 to 160 °C
Cc1ccc(C(=O)OC(=Cc2nc3ccccc3n2C)c2ccc(C)cc2)cc1 [Example 8, 2-(1-methyl-1H-benzo[d]imidazol-2-yl)-1-p-tolylvinyl 4-methylbenzoate]	2.0 ppm	–	–	–
COc1ccc(C(=O)OC(=Cc2nc3cc(C)ccc3n2C(C)C)c2ccc(OC)cc2)cc1 [Example 3, 2-(1-isopropyl-5-methyl-1H-benzo[d]imidazol-2-yl)-1-(4-methoxyphenyl)vinyl 4-methoxybenzoate]	0.5 ppm	–	–	147 to 152 °C
CCNC(=O)C1CC(C)CCC1C(C)C (stereo not drawn) [N-ethyl p-menthanecarboxamide (WS-3), N-ethyl p-menthanecarboxamide, reference compound]	1.5 ppm	–	–	–
COc1ccc(C(=O)OC(=Cc2nc3ccccc3n2C)c2ccc(OC)cc2)cc1 [1-(4-methoxyphenyl)-2-(1-methyl-1H-benzo[d]imidazol-2-yl)vinyl 4-methoxybenzoate]	0.5 ppm	–	–	–
Cc1ccc2nc(C=C(OC(=O)c3ccc(Cl)cc3)c3ccc(Cl)cc3)n(C(C)C)c2c1 [Example 4, 1-(4-chlorophenyl)-2-(1-isopropyl-6-methyl-1H-benzo[d]imidazol-2-yl)vinyl 4-chlorobenzoate]	–	–	–	158 to 165 °C
